Experiment [1] concerns RS4;11 leukaemia tumour line. The experiment can be described thus: In vitro cytotoxicity (Microculture Tetrazolium Assay). The conditions noted are these: RS4;11 cells, exposed for 48 hours, cell viability, read-out: IC50 (nM) MTT RS4;11. The format is cell-based. As for the experimental part:
The cytotoxicity studies were carried out on the RS4;11 leukaemia tumour line.
The cells are distributed onto microplates and exposed to the test compounds for 48 hours.
The cell viability is then quantified by a colorimetric assay, the Microculture Tetrazolium Assay (Cancer Res., 1987, 47, 939-942).

For a further experiment, the target named is Bcl-2 protein (histag-Bcl-2, UniProtKB P10415) (Homo sapiens (Human), UniProt P10415). The experiment can be described thus: Inhibition of Bcl-2 by the fluorescence polarisation technique. The experiment is classed as binding. To be noted: incubation for 2 hours, read-out: IC50 (nM) Bcl-2 FP. As for the experimental part: The fluorescence polarisation tests were carried out on microplates (384 wells). The Bcl-2 protein, labelled (histag-Bcl-2 such that Bcl-2 corresponds to the UniProtKB® primary accession number: P10415), at a final concentration of 2.50×10^−8 M, is mixed with a fluorescent peptide (Fluorescein-[…]), at a final concentration of 1.00×10^−8 M in a buffer solution (Hepes 10 mM, NaCl 150 mM, Tween20 0.05%, pH 7.4), in the presence or absence of increasing concentrations of test compounds. After incubation for 2 hours, the fluorescence polarisation is measured.
In general terms: Fluorescence polarisation rises when a labelled molecule tumbles more slowly, as on binding a larger partner.

Drawing on US9108983B2, “Pyrrole compounds, a process for their preparation and pharmaceutical compositions containing them” (LES LABORATOIRES SERVIER, priority 2013, dated 2015), this text covers IC50 for 19 compounds.

A word on the IC50: it is the point on the concentration scale where inhibition reaches its midpoint.

Structures can show the parent of a compound that is named as a salt. Where two headings read alike, the source gives them in different places.

Sequence of Bcl-2 protein (P10415 whole entry): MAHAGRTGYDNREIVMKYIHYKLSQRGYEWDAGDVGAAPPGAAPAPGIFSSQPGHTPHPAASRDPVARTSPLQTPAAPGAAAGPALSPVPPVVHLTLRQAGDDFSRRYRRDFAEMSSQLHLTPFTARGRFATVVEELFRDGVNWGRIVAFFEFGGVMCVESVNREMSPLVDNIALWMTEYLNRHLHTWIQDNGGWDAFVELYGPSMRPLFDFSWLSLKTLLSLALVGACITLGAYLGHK

As for “5-(5-Fluoro-4-methoxy-2-{[(3S)-3-(morpholin-4-ylmethyl)-3,4-dihydroisoquinolin-2(1H)-yl]carbonyl}phenyl)-N-(4-hydroxyphenyl)-1,2-dimethyl-N-(1-methyl-2,3-dihydro-1H-pyrrolo[2,3-b]pyridin-5-yl)-1H-pyrrole-3-carboxamide hydrochloride [Example 210]”, the half-inhibitory concentration (IC50) in experiment [1] came out at 47.2 nM; on Bcl-2 protein, 8.8 nM. Take `Cc1c(C(=O)N(c2ccc(O)cc2)c2cnn(C3CCOC3)c2)cc(-c2cc(F)ccc2C(=O)N2Cc3ccccc3C[C@H]2CN2CCOCC2)n1C` (single isomer, unassigned) [Example 402, 5-(5-Fluoro-2-{[(3S)-3-(morpholin-4-ylmethyl)-3,4-dihydroisoquinolin-2(1H)-yl]carbonyl}phenyl)-N-(4-hydroxyphenyl)-1,2-dimethyl-N-{1-[(3S or R)-tetrahydrofuran-3-yl]-1H-pyrazol-4-yl}-1H-pyrrole-3-carboxamide hydrochloride]: the IC50 was 241 nM in experiment [1] (Homo sapiens, RS4-11, 48 h) and 26.1 nM at Bcl-2 protein. As to `Cc1c(C(=O)N(c2ccc(O)cc2)c2cnn(C3CCOC3)c2)cc(-c2cc(F)ccc2C(=O)N2Cc3ccccc3C[C@H]2CN2CCOCC2)n1C` (single isomer, unassigned) [Example 403, 5-(5-Fluoro-2-{[(3S)-3-(morpholin-4-ylmethyl)-3,4-dihydroisoquinolin-2(1H)-yl]carbonyl}phenyl)-N-(4-hydroxyphenyl)-1,2-dimethyl-N-{1-[(3R or S)-tetrahydrofuran-3-yl]-1H-pyrazol-4-yl}-1H-pyrrole-3-carboxamide hydrochloride], the figures for the IC50 (in experiment [1] (hydrochloride); on Bcl-2 protein) were 289 nM and 24.2 nM, respectively.

Take `Cc1c(C(=O)N(c2ccc(O)cc2)c2cnn(C)c2)cc(-c2cc(Cl)ccc2C(=O)N2Cc3ccccc3C[C@H]2C)n1C` [Example 1, 5-(5-Chloro-2-{[(3R)-3-methyl-3,4-dihydroisoquinolin-2(1H)-yl]carbonyl}phenyl)-N-(4-hydroxyphenyl)-1,2-dimethyl-N-(1-methyl-1H-pyrazol-4-yl)-1H-pyrrole-3-carboxamide]: the IC50 in experiment [1] (Homo sapiens, RS4-11, 48 h) was 33.6 nM; at Bcl-2 protein it was 5 nM. In the case of `Cn1cc(C(=O)N(c2ccccc2)c2ccccc2)cc1-c1ccccc1C(=O)N1Cc2ccccc2C[C@H]1CN` [Example 2, 5-(2-{[(3S)-3-(Aminomethyl)-3,4-dihydroisoquinolin-2(1H)-yl]carbonyl}phenyl)-1-methyl-N,N-diphenyl-1H-pyrrole-3-carboxamide], the IC50 in experiment [1] (Homo sapiens, RS4-11, 48 h) worked out at 1660 nM. `CN1CCN(C[C@@H]2Cc3ccccc3CN2C(=O)c2ccc(Cl)cc2-c2cc(C(=O)N(c3ccc(O)cc3)c3ccc4[nH]ccc4c3)cn2C)CC1` [Example 3, 5-(5-Chloro-2-{[(3S)-3-[(4-methylpiperazin-1-yl)methyl]-3,4-dihydroisoquinolin-2(1H)-yl]carbonyl}phenyl)-N-(4-hydroxyphenyl)-N-(1H-indol-5-yl)-1-methyl-1H-pyrrole-3-carboxamide]: the IC50 turned out to be 94.9 nM in experiment [1] (Homo sapiens, RS4-11, 48 h) and 24.6 nM at Bcl-2 protein. For the compound `CN1CCN(C[C@@H]2Cc3ccccc3CN2C(=O)c2cc3c(cc2-c2cc(C(=O)N(c4ccc(O)cc4)c4ccc5[nH]ccc5c4)cn2C)OCO3)CC1` [Example 4, N-(4-Hydroxyphenyl)-N-(1H-indol-5-yl)-1-methyl-5-(6-{[(3S)-3-[(4-methylpiperazin-1-yl)methyl]-3,4-dihydroisoquinolin-2(1H)-yl]carbonyl}-1,3-benzodioxol-5-yl)-1H-pyrrole-3-carboxamide], the IC50 in experiment [1] (Homo sapiens, RS4-11, 48 h) turned out to be 231 nM.

Regarding `CC(C)n1cc(C(=O)N(c2ccc(O)cc2)c2ccc3c(ccn3C)c2)cc1-c1cc(Cl)ccc1C(=O)N1Cc2ccccc2C[C@H]1CN1CCN(C)CC1` [Example 8], the IC50 in experiment [1] was found to be 255 nM. Take `Cc1c(C(=O)N(c2ccccc2)c2ccc(O)cc2)cc(-c2cc(Cl)ccc2C(=O)N2Cc3ccccc3C[C@H]2COCCN(C)C)n1C` [Example 60, 5-(5-Chloro-2-{[(3S)-3-{[2-(dimethylamino)ethoxy]methyl}-3,4-dihydroisoquinolin-2(1H)-yl]carbonyl}phenyl)-N-(4-hydroxyphenyl)-1,2-dimethyl-N-phenyl-1H-pyrrole-3-carboxamide hydrochloride]: the 50% inhibitory concentration (IC50) in experiment [1] (Homo sapiens, RS4-11, 48 h) was 18.3 nM.

`Cc1c(C(=O)N(c2ccc(O)cc2)c2cnn(C)c2)cc(-c2cc(F)ccc2C(=O)N2Cc3ccccc3C[C@H]2CN2CCOCC2)n1C` [Example 67, 5-(5-Fluoro-2-{[(3S)-3-(morpholin-4-ylmethyl)-3,4-dihydroisoquinolin-2(1H)-yl]carbonyl}phenyl)-N-(4-hydroxyphenyl)-1,2-dimethyl-N-(1-methyl-1H-pyrazol-4-yl)-1H-pyrrole-3-carboxamide hydrochloride]: the IC50 in experiment [1] (Homo sapiens, RS4-11, 48 h) was determined as 98.6 nM. Same read-out and setting: the same measure for `C[C@@H]1Cc2ccccc2CN1C(=O)c1cc2c(cc1-c1cc(C(=O)N(c3ccc(O)cc3)c3cnn(C)c3)c(CCN3CCOCC3)n1C)OCO2` [Example 81, N-(4-Hydroxyphenyl)-1-methyl-5-(6-{[(3R)-3-methyl-3,4-dihydroisoquinolin-2(1H)-yl]carbonyl}-1,3-benzodioxol-5-yl)-N-(1-methyl-1H-pyrazol-4-yl)-2-[2-(morpholin-4-yl)ethyl]-1H-pyrrole-3-carboxamide hydrochloride]: 249 nM. As for `Cc1c(N(C(=O)c2cc(-c3cc(Cl)ccc3C(=O)N3Cc4ccccc4C[C@H]3CN3CCOCC3)n(C)c2C)c2ccc(O)cc2)cc(C#N)n1C` [Example 386, 5-(5-Chloro-2-{[(3S)-3-(morpholin-4-ylmethyl)-3,4-dihydroisoquinolin-2(1H)-yl]carbonyl}phenyl)-N-(5-cyano-1,2-dimethyl-1H-pyrrol-3-yl)-N-(4-hydroxyphenyl)-1,2-dimethyl-1H-pyrrole-3-carboxamide hydrochloride], the IC50 in experiment [1] (Homo sapiens) is 9.23 nM. Turning to `Cl.[2H]C([2H])([2H])n1cc(N(C(=O)c2cc(-c3cc(F)ccc3C(=O)N3Cc4ccccc4C[C@H]3CN3CCOCC3)n(C)c2C)c2ccc(O)cc2)cn1` [Example 420, 5-(5-Fluoro-2-{[(3S)-3-(morpholin-4-ylmethyl)-3,4-dihydroisoquinolin-2(1H)-yl]carbonyl}phenyl)-N-(4-hydroxyphenyl)-1,2-dimethyl-N-[1-(trideuteriomethyl)-1H-pyrazol-4-yl]-1H-pyrrole-3-carboxamide hydrochloride], the IC50 in experiment [1] (Homo sapiens, RS4-11, 48 h) was determined as 51.8 nM.

Regarding `Cc1c(C(=O)N(c2ccccc2)c2cnc3c(ccn3C)c2)cc(-c2cc(F)c(O)cc2C(=O)N2Cc3ccccc3C[C@H]2CN2CCOCC2)n1C` [Example 443, 5-(5-Fluoro-4-hydroxy-2-{[(3S)-3-(morpholin-4-ylmethyl)-3,4-dihydroisoquinolin-2(1H)-yl]carbonyl}phenyl)-1,2-dimethyl-N-(1-methyl-1H-pyrrolo[2,3-b]pyridin-5-yl)-N-phenyl-1H-pyrrole-3-carboxamide], in experiment [1] (Homo sapiens, RS4-11, 48 h), the IC50 was found to be 57.9 nM. With `Cl.[2H]C([2H])([2H])n1c(C#N)cc(N(C(=O)c2cc(-c3cc(Cl)ccc3C(=O)N3Cc4ccccc4C[C@H]3CN3CCOCC3)n(C)c2C)c2ccc(O)cc2)c1C` [Example 449, 5-(5-Chloro-2-{[(3S)-3-(morpholin-4-ylmethyl)-3,4-dihydroisoquinolin-2(1H)-yl]carbonyl}phenyl)-N-[5-cyano-2-methyl-1-(trideuteriomethyl)-1H-pyrrol-3-yl]-N-(4-hydroxyphenyl)-1,2-dimethyl-1H-pyrrole-3-carboxamide hydrochloride], the IC50 in experiment [1] (Homo sapiens) amounted to 11.9 nM. `COc1ccc(N(C(=O)c2cc(-c3cc(Cl)ccc3C(=O)N3Cc4ccccc4C[C@H]3CN3CCOCC3)n(C)c2C)c2ccc(O)cc2)nc1C#N` [Example 457, 5-(5-Chloro-2-{[(3S)-3-(morpholin-4-ylmethyl)-3,4-dihydroisoquinolin-2(1H)-yl]carbonyl}phenyl)-N-(6-cyano-5-methoxypyridin-2-yl)-N-(4-hydroxyphenyl)-1,2-dimethyl-1H-pyrrole-3-carboxamide hydrochloride]: the IC50 in experiment [1] (Homo sapiens, RS4-11, 48 h) was found to be 80.4 nM. Regarding `CCOc1ncc(N(C(=O)c2cc(-c3cc(F)ccc3C(=O)N3Cc4ccccc4C[C@H]3CN3CCOCC3)n(C)c2C)c2ccc(O)cc2)cn1` [Example 463, N-(2-Ethoxypyrimidin-5-yl)-5-(5-fluoro-2-{[(3S)-3-(morpholin-4-ylmethyl)-3,4-dihydroisoquinolin-2(1H)-yl]carbonyl}phenyl)-N-(4-hydroxyphenyl)-1,2-dimethyl-1H-pyrrole-3-carboxamide], in experiment [1] (Homo sapiens, RS4-11, 48 h), the IC50 was 40.8 nM. The same measure, in the same setting: the same measure for `Cc1c(N(C(=O)c2cc(-c3ccc(Cl)cc3C(=O)N3Cc4ccccc4C[C@H]3CN3CCOCC3)n(C)c2C)c2ccc(O)cc2)cc(C#N)n1C` [Example 465, 5-(4-Chloro-2-{[(3S)-3-(morpholin-4-ylmethyl)-3,4-dihydroisoquinolin-2(1H)-yl]carbonyl}phenyl)-N-(5-cyano-1,2-dimethyl-1H-pyrrol-3-yl)-N-(4-hydroxyphenyl)-1,2-dimethyl-1H-pyrrole-3-carboxamide hydrochloride]: 50.6 nM; for `Cc1c(C(=O)N(c2ccc(O)cc2)c2cnn(C)c2)cc(-c2ccc(Cl)cc2C(=O)N2Cc3ccccc3C[C@H]2CN2CCOCC2)n1C` [Example 466, 5-(4-Chloro-2-{[(3S)-3-(morpholin-4-ylmethyl)-3,4-dihydroisoquinolin-2(1H)-yl]carbonyl}phenyl)-N-(4-hydroxyphenyl)-1,2-dimethyl-N-(1-methyl-1H-pyrazol-4-yl)-1H-pyrrole-3-carboxamide hydrochloride]: 493 nM.
